Test systems include OVCAR-3; TK-10; SK-MEL-5; NCI/ADR-RES; LOX IMVI; SNB-19; OVCAR-5; ACHN; KM-20L2; T47D; MDA-MB-231; RPMI-8226; HCC 2998; MDA-MB-435; DU-145; MCF7; EKVX; NCI-H23; HL-60; NCI-H460.
Common to all, as to assay: DTP human tumour cell line panel, 48 h

Structures are written as SMILES.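 Five compound concentrations were applied to cells in 96-well plates for 48 hours; endpoints were derived by simple linear interpolation of the resulting dose-response curve. Abbreviation: GI50, concentration required for 50% inhibition of growth.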 Calls of active or inactive are those of the source. No stated cut-off is given here; in the data, active = GI50 up to about 1.1 µM and inactive = higher.

A word on the GI50: it is the concentration giving 50% growth inhibition. Regarding `O=C1C2=C(c3ccccc31)C(c1ccccc1)N1C(=O)CSC1=N2` (stereo not given), the GI50 is 51.2 µM (inactive) in the assay on OVCAR-3; > 75.3 µM (inactive) in the assay on TK-10; 36.9 µM (inactive) in the assay with SK-MEL-5; 24 µM (inactive) with NCI/ADR-RES; 37.3 µM (inactive) with LOX IMVI; 55.7 µM (inactive) in the assay with SNB-19. Further, the GI50 in the assay on OVCAR-5 is > 85.5 µM (inactive); in the assay with ACHN, > 79.4 µM (inactive); in the assay with KM-20L2, 91 µM (inactive); with T47D, 29.6 µM (inactive); in the assay with MDA-MB-231, 44.8 µM (inactive); in the assay with RPMI-8226, 56.9 µM (inactive). For the same compound, the GI50 in the assay with HCC 2998 is > 68.1 µM (inactive); with MDA-MB-435, 17.4 µM (inactive); with DU-145, 52.4 µM (inactive); with MCF7 it was 33.8 µM (inactive); in the assay with EKVX, > 55.7 µM (inactive); in the assay on NCI-H23, 56.4 µM (inactive). Moreover, the GI50 is 40.1 µM (inactive) in the assay with HL-60 and > 57.1 µM (inactive) in the assay on NCI-H460.
`CCOc1ccc2c(ccc(/C=C/c3cc(C)c4cccnc4c3O)[n+]2C)c1`: the GI50 with OVCAR-3 is 0.129 µM (active); in the assay on TK-10 it was 0.575 µM (active); in the assay on SK-MEL-5, 0.627 µM (active); with NCI/ADR-RES, 41.6 µM (inactive); in the assay on LOX IMVI, 0.356 µM (active); in the assay on SNB-19 it was 0.594 µM (active). The GI50 in the assay on OVCAR-5 is 1.24 µM (inactive); in the assay with ACHN, 1.4 µM (inactive); in the assay with KM-20L2, 0.527 µM (active); in the assay on T47D, 0.54 µM (active); in the assay on MDA-MB-231, 0.157 µM (active); with RPMI-8226 it was 0.818 µM (active). The GI50 with HCC 2998 was 0.746 µM (active); in the assay with MDA-MB-435, 0.929 µM (active); in the assay with DU-145, 3.62 µM (inactive); with MCF7 it was 0.115 µM (active); in the assay on EKVX it was 0.925 µM (active); in the assay with NCI-H23 it was 1.08 µM (active). Also, the figures for the GI50 in the assay on HL-60 and in the assay with NCI-H460 were 0.141 µM (active) and 0.281 µM (active), respectively.
Turning to `CC(CCC=O)CCOCc1ccccc1` (stereo not given), the GI50 with OVCAR-3 is > 88.5 µM (inactive); with TK-10, > 42 µM (inactive); with SK-MEL-5, 37.4 µM (inactive); with NCI/ADR-RES, > 100 µM (inactive); in the assay with LOX IMVI, 49.8 µM (inactive); with SNB-19, > 100 µM (inactive). Besides, the GI50 in the assay on OVCAR-5 is > 89.7 µM (inactive); in the assay with ACHN, > 100 µM (inactive); with KM-20L2, > 100 µM (inactive); in the assay with T47D, > 100 µM (inactive); with MDA-MB-231, 56.6 µM (inactive); in the assay with RPMI-8226 it was 53.7 µM (inactive). Besides, the GI50 is > 100 µM (inactive) with HCC 2998; > 100 µM (inactive) in the assay on MDA-MB-435; > 100 µM (inactive) with DU-145; 2.8 µM (inactive) with MCF7; > 100 µM (inactive) with EKVX; 67.3 µM (inactive) with NCI-H23. Also, the GI50 with HL-60 is 18.9 µM (inactive); with NCI-H460, > 100 µM (inactive).

The record behind these values is ChEMBL document CHEMBL1201862, “PubChem BioAssay data set” (2004).
